A short description of data set [1]: In vivo PET imaging, PK and biodistribution in normal mice. The following applies: normal mouse, intravenous via tail vein, 50-100 μCi.
Protocol: In vivo PK of the radiolabeled macrocycle anchors and biligands was visualized and quantitatively determined by PET imaging in normal (healthy) mice. Radiolabeled peptides were formulated in PBS pH 7.4 containing <10% EtOH. 50-100 μCi of radiolabeled peptide was administered intravenously via the tail vein of each mouse. Dynamic (0-1 hour) and static PET imaging was performed to quantify initial peptide biodistribution, time to clear the initial concentration sites, and final excretion route. A CT scan was subsequently acquired for anatomical reference. Imaging was performed on GENISYS8 and Inveon microPET-CT small animal scanners.
The target of data set [2] is His-tagged CD8α human recombinant protein (Homo sapiens, UniProt P01732). The data set can be described thus: CD8 ELISA (affinity assay) of biligands to determine cooperativity. Type of data set: binding. Details: purchased Origene TP760215. The following applies: biotinylated biligand immobilized on NeutrAvidin plate; CD8α titrated 200 to 0 nM; read-out: EC50 against CD8. The procedure: CD8 ELISA (Affinity assay). […] The plate was then blocked with 2 μM Biotin for 15 min.
Chain of His-tagged CD8α human recombinant protein (P01732 22-235): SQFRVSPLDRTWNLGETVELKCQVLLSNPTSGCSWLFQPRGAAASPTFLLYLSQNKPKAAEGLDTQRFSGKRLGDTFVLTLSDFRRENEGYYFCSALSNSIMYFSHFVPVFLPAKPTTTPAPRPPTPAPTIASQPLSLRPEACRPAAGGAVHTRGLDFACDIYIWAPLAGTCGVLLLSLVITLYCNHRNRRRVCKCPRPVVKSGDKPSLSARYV
This predicts that an optimized linker to covalently join two PCC macrocycles will have a length near 28.2 Å. In FIG. 17 that prediction is validated by testing polyethylene glycol (PEG) linkers of varying lengths. […] This represents a >30-fold improvement in affinity relative to the individual PCC macrocyclic ligands. Shorter or longer linkers yield biligand affinities that, while improved over either of the PCC macrocycles, are about ˜10-fold below that of the optimal linker.
For orientation: In an ELISA, binding on a coated surface is turned into a signal by an enzyme label.

The subject of another data set is human PBMCs. The data set can be described thus: Cellular binding assay of CD8 biligand by flow cytometry. Type of data set: cell-based. The conditions noted are these: human PBMCs co-stained with CD3-APC mAb; biligand 5 μM. The procedure: Cryopreserved human peripheral blood mononuclear cells (PBMCs) from Zen-Bio (1 donor; #SER-PBMC-F) were thawed using Lymphocyte Medium (#LYMPH-1, Zen-Bio) following the vendor's protocol. Cells were then resuspended in FACS buffer (1× Dulbecco's Phosphate-Buffered Saline+2% Fetal Bovine Serum+2 mM EDTA).
Protocol: A total of 1×10^6 human PBMCs in 50 μL of FACs buffer was incubated with 0.5 μL of Alexa Fluor 488-labeled biligand Cy(HGRGH) (SEQ ID NO: 21)-PEG5-Cy(AKYRG) (SEQ ID NO: 8) (final concentration: 5 μM), 2 μL of human CD3-APC mAb (clone: BW264/56) (#130-098-156, MACS Miltenyi Biotec), and 2.5 μL of 7-AAD Viability Staining Solution (#00-6993, eBioscience) at room temperature for 30 min. […] Data were obtained and analyzed with FACSCalibur and FACSDiva v8.0.1 (BD Biosciences), respectively.
Flow cytometry was used to evaluate biligand detection of cellular CD8. […] Samples were then washed and analyzed for green (CD8; FITC-A) and red (CD3; APC-A) fluorescence. […] The cell populations in Q2 (10.9%) and Q4 (11.6%) were detected by the biligand as CD8+ and are consistent with the % CD8+ cells reported by the vendor. […] The cell populations detected by the CD8-FITC mAb were 11.2% in Q2 and 2.1% in Q4.

Experimental findings from patent US12594350B2, “CD8-specific capture agents, compositions, and methods of using and making” (Regeneron Pharmaceuticals, Inc., priority 2016, dated 2026) are described below.

Bridge positions count the residues as written; N and C are the ends. Square brackets hold non-standard residues; d marks the D form. Triazole bridges read from a SMILES are 1,4-linked. Ends that are not written are not given here. Peptide text beside a SMILES is read from it. * marks the point of attachment. Biotin = O=C1N[C@H]2[C@H](CS[C@H]2CCCCC(=O)*)N1; Lys(N3) = [N-]=[N+]=NCCCC[C@H](N)C(=O)O; Pra = C#CC[C@H](N)C(=O)O; AEA = NCCOCC(=O)O

`O=Cc1ccc([18F])cc1` [[^18F]FB, 4-[^18F]fluorobenzaldehyde]: the “biodistribution and clearance route by PET (in words)” value in data set [1] was “rapid kidney uptake and clearance, then near exclusive bladder occupancy by 30 minutes”. Broadly, the EC50 is the concentration that produces a half-maximal response. Turning to `C[C@H](O)[C@H]1NC(=O)[C@@H](Cc2c[nH]cn2)NC(=O)CNC(=O)[C@@H](N)CCCCn2cc(nn2)C[C@@H](C(=O)N[C@@H](CCCCNC(=O)CCCC[C@@H]2SC[C@@H]3NC(=O)N[C@@H]32)C(=O)NCCOCC(=O)N[C@H]2CCCCn3cc(nn3)C[C@@H](C(N)=O)NC(=O)[C@@H](Cc3c[nH]cn3)NC(=O)CNC(=O)[C@@H](CCCNC(=N)N)NC(=O)CNC(=O)[C@@H](Cc3c[nH]cn3)NC2=O)NC(=O)[C@H]2CCCN2C(=O)[C@@H](Cc2c[nH]c3ccccc23)NC1=O` [Cy(Ghtwp)-Lys (Biotin)-PEG1-Cy(hGrGh)] (H-[Lys(N3)]G[dH][dT][dW][dP][Pra]K(Biotin)[AEA][Lys(N3)][dH]G[dR]G[dH][Pra]-NH2; triazole 1-7, 10-16), the EC50 in data set [2] worked out at 0.058 nM.

Take “Alexa Fluor 488-labeled biligand Cy(HGRGH)-PEG5-Cy(AKYRG): biligand Cy(HGRGH)-PEG5-Cy(AKYRG) resynthesized with an Alexa Fluor 488 label (not fully specified (bridges); also: PEG5 linker joins the two macrocycles, Alexa Fluor 488 label, site not given here)”: in the data set on human PBMCs, the “cell population in Q2 detected as CD8+” value came out at 10.9% and the “cell population in Q4 detected as CD8+” value amounted to 11.6%.
